Assay results published in publication PMC3937006, “Synergism of peptide receptor-targeted Auger electron radiation therapy with anti-angiogenic compounds in a mouse model of neuroendocrine tumors” (EJNMMI Research, 2014).

Tests used:
[1] = test system: pancreatic tumors and other organs of Rip1Tag2 mice; format: in vivo, mouse
Description: Male and female Rip1Tag2 mice, 19 to 32 g of weight and 11.6 ± 0.7 weeks old, were stratified according to their age and randomly assigned to the different cohorts. […] Both vatalanib and imatinib were provided by Novartis (Basel, Switzerland). Days (0, 3, 5, and 7 days) after the beginning of vatalanib or imatinib treatment, the mice were injected through the tail vein with 185 kBq (10 ng peptide/2 pmol) [Lys^40(Ahx-DTPA-^111In)NH2]-exendin-4 (^111In-DTPA-exendin-4) in a 100-μl 1% human serum albumin solution diluted in 0.9% NaCl. At 4 h after injection, the mice were sacrificed under isoflurane and CO2 anesthesia. The organs, blood, and tumors were collected, weighed, and the radioactivity in these samples was determined using a γ-counter. The percentage of injected activity (IA)/g tissue was calculated for each tissue.

[2] = test system: CD31-positive blood vessels in tumors of Rip1Tag2 mice; experiment: Microvessel density, CD31 immunohistochemistry on tumor sections; format: in vivo, mouse; conditions: for microvessel density, CD31-positive blood vessels (median): Rip1Tag2 mice after 7-day therapy, radiopeptide 1.1 MBq, natIn-exendin-4 40 pmol, kinase inhibitor 100 mg/kg p.o.
[3] = test system: GLP-1R; experiment: GLP-1 receptor autoradiography of tumors after vatalanib treatment; format: in vivo, mouse; conditions: Rip1Tag2 mice, vatalanib 100 mg/kg p.o. for 4 days, n = 4; 32 pM [125I]-GLP-1; p = 0.98 vs saline control
Description: GLP-1 receptor autoradiography was used to quantify the GLP-1 receptors in the mouse tumors in the presence or absence of vatalanib treatment. The Rip1Tag2 mice were treated with vatalanib as described before for 4 days and sacrificed on day 5. During necropsy, the tumors were snap frozen on dry ice. Tumor sections (20-μm thick) were incubated for 2 h at ambient temperature in the presence of 32 pM [^125I]-GLP-1 (2,000 Ci/mmol). The incubation solution was 170 mM Tris-HCI buffer (pH 8.2) containing 1% bovine serum albumin, bacitracin (40 μg/ml) and MgCl2 (10 mM) to inhibit endogenous proteases. Non-specific binding was determined by adding 100-nM solution of unlabeled GLP-1. The incubated sections were washed twice for 5 min in cold incubation buffer containing 0.25% bovine serum albumin, then in buffer alone, and dried quickly. Finally, the sections were apposed to Biomax MR films (Kodak, Rochester, NY, USA) and exposed for 1 week in X-ray cassettes.
In all the experiments, the autoradiograms were quantified using a computer-assisted image processing system. Tissue standards for iodinated compounds were used for this purpose.

[4] = test system: tumor β-cells of Rip1Tag2 mice; experiment: Tumor cell apoptosis, TUNEL assay; format: in vivo, mouse; conditions: Rip1Tag2 mice after 7-day therapy, vatalanib study
[5] = test system: pancreatic neuroendocrine tumors (pNET) of Rip1Tag2 mice; experiment: Therapy study, tumor volume in Rip1Tag2 mice; conditions: day 8, radiopeptide 1.1 MBq i.v. once, kinase inhibitor 100 mg/kg p.o. daily for 7 days
[6] = test system: GLP-1 receptor-expressing tumor cells established from pancreatic tumors of Rip1Tag2 mice; format: cell-based, mouse
Description: A nuclei isolation kit (Nuclei EZ Prep Kit, Sigma-Aldrich Chemie Gmbh, Steinheim, Germany) was used to separate and quantify the amount of radioactivity stored in the nuclei. The preparation was done according to the manufacturer's instructions. The GLP-1 receptor-expressing tumor cells were established from pancreatic tumors of Rip1Tag2 mice, as described previously. The cells were seeded at a density of 2 × 10^7 cells in Petri dishes and incubated overnight. Afterward, 25 pmol ^111In-DTPA-exendin-4 (2.5 MBq) was added to the Petri dishes and incubated at 37°C. The internalization was stopped at 2, 4, and 24 h by removing the medium and by washing the cells four times with 5-ml ice-cold phosphate-buffered saline. Ice-cold nuclei EZ lysis buffer (2 ml) was added, and the cells were scraped with a small bladed cell scraper. The cell lysate was transferred to a separate 15-ml centrifuge tube and set on ice for 5 min. To collect the nuclei, the cell lysate was centrifuged three times at 500 g for 5 min at 4°C. The culture medium, the clear supernatant (cytoplasmatic supernatant), and nucleus pellets were measured radiometrically with a γ-counter.

[7] = test system: pancreatic tumors and other organs of Rip1Tag2 mice; conditions: mouse, in vivo; cited from earlier work
Description: Thus, the combination with an anti-angiogenic drug that has a different toxicity profile than the radiopeptide reduces the amount of [Lys^40(Ahx-DTPA-^111In)NH2]-exendin-4 and is a more nephroprotective treatment. This is relevant because kidney ...

[8] = test system: pancreas, lungs, bowel and kidneys of Rip1Tag2 and C57/Bl6 mice; conditions: dose of 28 MBq; cited from earlier work
Description: (§1) We have shown in the Rip1Tag2 mouse model of pancreatic neuroendocrine tumors (pNET) that [Lys^40(Ahx-DTPA-^111In)NH2]-exendin-4 is suitable for molecular imaging of NETs using single-photon emission computed tomography (SPECT). pNETs could be detected down to a size of 1 mm in diameter. In a clinical pilot study, we could localize occult insulinomas that were not detectable using conventional imaging methods.

[9] = test system: pancreatic neuroendocrine tumors (pNET) of Rip1Tag2 mice; conditions: injection of 28 MBq; cited from earlier work
Description: as §1

Molecule | effect of pre-treatment on uptake of the radiopeptide ([1]; imatinib 100 mg/kg p.o. daily, independent of organ or time point (0, 3, 5, 7 days)) | effect on tumor-associated vessels ([2]; imatinib 100 mg/kg p.o. for 7 days) | effect on radiopeptide uptake in all the other organs ([1]; vatalanib 100 mg/kg p.o. daily up to 7 days) | reduction of radiopeptide uptake in the kidney ([1]; vatalanib 100 mg/kg p.o. daily, within 7 days, p < 0.001) [%] | decrease of specific tumor uptake of radiopeptide ([1]; within the first 5 days of vatalanib treatment) | expression of the GLP-1R on pancreatic tumors by autoradiography [3] | microvessel density, CD31-positive blood vessels (median) [2] | number of apoptotic cells/0.1 mm^2 (median) [4] [cells/0.1 mm^2] | tumor volume treated/volume control (T/C) ratio [5] | internalized activity accumulated in the nucleus [6] | tumor uptake [7] [% IA/g tumor] | renal toxicity [8] | reduction of the tumor mass [9] [%]
Cc1ccc(NC(=O)c2ccc(CN3CCN(C)CC3)cc2)cc1Nc1nccc(-c2cccnc2)n1 [imatinib] | did not affect the uptake | no apparent effect |  |  |  |  |  |  |  |  |  |  | 
Clc1ccc(Nc2nnc(Cc3ccncc3)c3ccccc23)cc1 [vatalanib] |  |  | unaffected | 29.5 | more than 50% | 14,176 ± 5,958 dgm/min | 28 /mm^2 | 1.7 | 0.26 |  |  |  | 
[Lys^40(Ahx-DTPA-^111In)NH2]-exendin-4 |  |  |  |  |  |  | 77 /mm^2 |  |  | less than 5% | 287 ± 62 | significant renal radiation damage and consequent chronic renal failure | 94
